The assay relates to 422866-222-R5-J1-PDC complex spheroid viability. Put plainly: Anticancer human tumor 422866-222-R5-J1-PDC patient-derived pancreatic adenocarcinoma cell line growth inhibition [POLQ]. The note with it: for viability, T/C: stronger effect = lower value. Here is the method:
Multicellular complex tumor spheroid response to Polymerase (POL) inhibitors (novobiocin, ART-558, RP6685) in combination with a variety of drugs and investigational agents in selected tumor cell lines
The POL inhibitors (novobiocin, ART-558, and RP6685) were evaluated both individually and in combination with standard of care and investigational anticancer small molecules within a complex spheroid model of solid tumors. . Complex spheroids include a stromal component modeled by human endothelial cells (HUVEC) and fibroblasts modeled by human mesenchymal stem cells (MSCs). The concentration ranges selected for each drug and investigational agent were based upon clinically achievable concentrations if the clinical Cmax of the agent was known.
Compounds. The drugs and investigational agents: novobiocin (NSC847541), ART-558 (NSC835418), RP-6685 (NSC848927), peposertib (NSC802822), ceralasertib (NSC780249), elimusertib (NSC800525), camonsertib (NSC841442), AZD-1390 (NSC803789), olaparib (NSC753686), talazoparib (NSC767125), rucaparib (NSC756644), sotorasib (NSC818433), MRTX-1133 (NSC836407), SN-38 (NSC673596), topotecan (NSC609699), epotoside (NSC141540), doxorubicin (NSC123127), gemcitabine (NSC613327), 5-fluorouracil (NSC19893), paclitaxel (NSC125973), vemurafenib (NSC761431), MSA-2 (NSC828583), SN-011 (NSC837082), adavosertib (NSC754352), prexasertib (NSC758257), carboplatin (NSC241240) and oxaliplatin (NSC266046), were obtained from the National Cancer Institute (NCI) Developmental Therapeutics Program Chemical Repository (21). The FDA-approved anticancer drug set is available from the Developmental Therapeutics Program at https://dtp.cancer.gov/organization/dscb/obtaining/. […] The stock solutions were prepared in dimethyl sulfoxide (DMSO, Sigma-Aldrich, St. Louis, MO, cat. D2650), except for the platinum compounds which were prepared in saline (Quality Biological, Gaithersburg, MD, cat. 114-055-101), at 800-fold the tested concentration and stored at -70 degrees C prior to their use. All drugs and investigational agents were tested over a range starting from a high concentration at or near the clinical Cmax and decreasing in half-log increments. If the clinical Cmax for an agent had not been determined, the highest concentration tested was 10 microM, except for SN-38, which was tested at a high concentration of 1 microM.
Cell Culture. All cells were maintained in an incubator at 37 degrees C and 5% CO2 with 95% humidity. The PDC lines were cultured according to standard operating procedures established by the NCI PDMR (https://pdmr.cancer.gov). Table 3 of the manuscript, lists the cell lines along with the number of the three cell types plated to form the mct-spheroids and media for tumor cell growth. After thawing, all PDC lines, except 997537-175-T-J1-PDC and 415267-285-R-J2-PDC, were cultured in Matrigel-coated flasks prepared with a working solution of 1X Ham's F-12 nutrient mix, without supplementation (Thermo Fisher Scientific, cat. 11765054), 100 U/mL penicillin-streptomycin (Thermo Fisher Scientific, cat. 15140122), and 2.5% Matrigel (Corning Inc., Corning, NY, cat. 354248) for the first three passages. The two PDC lines 997537-175-T-J1-PDC and 415267-285-R-J2-PDC were cultured on uncoated flasks. The 857933-349-R-J2-PDC line was cultured in 6C/Colon 1B media containing advanced DMEM/F-12 (Thermo Fisher Scientific, cat. 12634028), 10 mM HEPES (Thermo Fisher Scientific, cat. 15630080), 1X GlutaMAX supplement (Thermo Fisher Scientific, cat. 35050061), 0.1 mg/mL primocin (InvivoGen, San Diego, CA, cat. ant-pm-2), 10% defined fetal bovine serum, heat inactivated (HyClone Laboratories Inc., Logan, UT, cat. SH30070.03HI), 50% L-WRN conditioned media (ATCC, cat. CRL-3276), 1.25 mM N-Acetyl-L-cysteine (Sigma-Aldrich, cat. A9165), 10 mM nicotinamide (Sigma-Aldrich, cat. N0636), 1X B-27 supplement (Thermo Fisher Scientific, cat. 17504044), 1X N-2 supplement (Thermo Fisher Scientific, cat. […]

Structures are written as SMILES. Values joined by “and” are separate entries in the source; they are usually repeats but may differ in a detail not shown here. Equal entries are not always repeated.
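Further: spheroids exposed to compounds for one week before readout.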
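Wherever viability, T/C is given: percent of DMSO vehicle wells luminescence so 100% = untreated viability.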

For `O=c1[nH]cc(F)c(=O)[nH]1` + Cc1cccc(N(C)C(=O)C2C(O)CCN2c2nc(C)cc(C(F)(F)F)c2C#N)c1, the IC50 (in general, the point on the concentration scale where inhibition reaches its midpoint) is over 10 µM (curve of first compound, second compound 0.0316 µM); over 10 µM (curve of first compound, second compound 0.1 µM); over 10 µM (curve of first compound, second compound 0.316 µM); over 10 µM (curve of first compound, second compound 1 µM); over 10 µM (curve of first compound, second compound 3.16 µM); over 10 µM (curve of first compound, second compound 10 µM). The viability, T/C (usually the ratio of treated to control) worked out at 117% (second compound 0.0316 µM, first compound 0.0316 µM); 98.5% (second compound 0.0316 µM, first compound 0.1 µM); 102% (second compound 0.0316 µM, first compound 0.316 µM); 88.2% (second compound 0.0316 µM, first compound 1 µM); 82.1% (second compound 0.0316 µM, first compound 3.16 µM); 74.9% (second compound 0.0316 µM, first compound 10 µM). Also, the viability, T/C is, setting by setting: (second compound 0.1 µM, first compound 0.0316 µM) 111%; (second compound 0.1 µM, first compound 0.1 µM) 92.2%; (second compound 0.1 µM, first compound 0.316 µM) 92.3%; (second compound 0.1 µM, first compound 1 µM) 90.8%; (second compound 0.1 µM, first compound 3.16 µM) 66.9%; (second compound 0.1 µM, first compound 10 µM) 74.3%. Besides, the viability, T/C is, setting by setting: (second compound 0.316 µM, first compound 0.0316 µM) 118%; (second compound 0.316 µM, first compound 0.1 µM) 109%; (second compound 0.316 µM, first compound 0.316 µM) 99.9%; (second compound 0.316 µM, first compound 1 µM) 84.3%; (second compound 0.316 µM, first compound 3.16 µM) 81.1%; (second compound 0.316 µM, first compound 10 µM) 78.2%. Also, the viability, T/C reads like this: (second compound 1 µM, first compound 0.0316 µM) 111%; (second compound 1 µM, first compound 0.1 µM) 96.6%; (second compound 1 µM, first compound 0.316 µM) 97.9%; (second compound 1 µM, first compound 1 µM) 101%; (second compound 1 µM, first compound 3.16 µM) 84.8%; (second compound 1 µM, first compound 10 µM) 83.2%. The viability, T/C is, setting by setting: (second compound 3.16 µM, first compound 0.0316 µM) 107%; (second compound 3.16 µM, first compound 0.1 µM) 98.6%; (second compound 3.16 µM, first compound 0.316 µM) 86.3%; (second compound 3.16 µM, first compound 1 µM) 83%; (second compound 3.16 µM, first compound 3.16 µM) 83.8%; (second compound 3.16 µM, first compound 10 µM) 87.6%. Further, the viability, T/C is, setting by setting: (second compound 10 µM, first compound 0.0316 µM) 90.6%; (second compound 10 µM, first compound 0.1 µM) 88.8%; (second compound 10 µM, first compound 0.316 µM) 99.7%; (second compound 10 µM, first compound 1 µM) 80.6%; (second compound 10 µM, first compound 3.16 µM) 86.7%; (second compound 10 µM, first compound 10 µM) 67.8%.

`COc1ccc([C@@H](O)c2cc(-c3ncnc4cc(N5CCOCC5)ccc34)c(F)cc2Cl)nn1`: the viability, T/C is, setting by setting: (compound 0.0316 µM) 80.3% and 87.1% and 99.6%; (compound 0.1 µM) 84.6% and 77% and 79.5%; (compound 0.316 µM) 76.6% and 85.4% and 75.6%; (compound 1 µM) 62.4% and 59% and 67.8%; (compound 3.16 µM) 43.3% and 51.7% and 45.8%; (compound 10 µM) 35.5% and 35.1% and 37.1%. The IC50 (curve of compound) is 2.1 µM and 2.82 µM and 3.02 µM.

Turning to `CC1COCCN1c1cc(C2(S(C)(=N)=O)CC2)nc(-c2ccnc3[nH]ccc23)n1` (stereo unspecified), the viability, T/C was 92.3% and 91.5% and 116% (compound 0.0316 µM); 101% and 93.1% and 100% (compound 0.1 µM); 93.4% and 95.6% and 96.3% (compound 0.316 µM); 74% and 72.6% and 85.2% (compound 1 µM); 49.9% and 44.6% and 41.7% (compound 3.16 µM); 39.9% and 30.8% and 42% (compound 10 µM). For the same molecule, for the setting “curve of compound”, the IC50 was 3.01 µM and 2.46 µM and 2.64 µM.
